Measured values: PubChem BioAssay AID2060907 (Molecular Pharmacology Branch, DTP, NCI, 2025)

Tested on: 388556-164-R-J1-PDC complex spheroid viability
Experiment: Anticancer human tumor 388556-164-R-J1-PDC patient-derived colon adenocarcinoma cell line growth inhibition [RAS]
Details: for viability, T/C: stronger effect = lower value
In short: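 Multi-cell-type spheroids: tumor cells plus HUVEC endothelial cells and mesenchymal stem cells. RAS-pathway inhibitors were combined with targeted agents, each dosed in half-log steps down from clinical Cmax, or from 10 microM when Cmax was unknown.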
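Also: spheroids exposed to compound for 7 days before readout.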
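For viability, T/C in this document: 100% = DMSO vehicle control luminescence.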

In the case of Nc1ccn(C2OC(CO)C(O)C2(F)F)c(=O)n1 (stereo not given) + C#Cc1c(F)ccc2cc(O)cc(-c3ncc4c(N5CC6CCC(C5)N6)nc(OCC56CCCN5CC(F)C6)nc4c3F)c12, the IC50 (curve of first compound, second compound 0.0316 µM) is reported as over 1 µM, the IC50 (curve of first compound, second compound 0.1 µM) is reported as over 1 µM and the IC50 (curve of first compound, second compound 0.316 µM) is reported as over 1 µM. It also gave an IC50 (curve of first compound, second compound 1 µM) of over 1 µM, an IC50 (curve of first compound, second compound 3.16 µM) of over 1 µM and an IC50 (curve of first compound, second compound 10 µM) of over 1 µM. For the same compound, the viability, T/C (second compound 0.0316 µM, first compound 0.00316 µM) was 95%, the viability, T/C (second compound 0.0316 µM, first compound 0.01 µM) was 95.6% and the viability, T/C (second compound 0.0316 µM, first compound 0.0316 µM) was 86%. For the same compound, the viability, T/C (second compound 0.0316 µM, first compound 0.1 µM) was 79.5%, the viability, T/C (second compound 0.0316 µM, first compound 0.316 µM) was 76% and the viability, T/C (second compound 0.0316 µM, first compound 1 µM) was 72.6%. The viability, T/C (second compound 0.1 µM, first compound 0.00316 µM) was 106%, the viability, T/C (second compound 0.1 µM, first compound 0.01 µM) was 96.6% and the viability, T/C (second compound 0.1 µM, first compound 0.0316 µM) was 80.4%. The viability, T/C (second compound 0.1 µM, first compound 0.1 µM) was 74.9%, the viability, T/C (second compound 0.1 µM, first compound 0.316 µM) was 74.9% and the viability, T/C (second compound 0.1 µM, first compound 1 µM) was 78.5%. It also gave a viability, T/C (second compound 0.316 µM, first compound 0.00316 µM) of 98.9%, a viability, T/C (second compound 0.316 µM, first compound 0.01 µM) of 93.2% and a viability, T/C (second compound 0.316 µM, first compound 0.0316 µM) of 60.9%. For the same compound, the viability, T/C (second compound 0.316 µM, first compound 0.1 µM) was 74.8%, the viability, T/C (second compound 0.316 µM, first compound 0.316 µM) was 75.8% and the viability, T/C (second compound 0.316 µM, first compound 1 µM) was 64.7%. The viability, T/C (second compound 1 µM, first compound 0.00316 µM) was 98.6%, the viability, T/C (second compound 1 µM, first compound 0.01 µM) was 82.5% and the viability, T/C (second compound 1 µM, first compound 0.0316 µM) was 60.1%. For the same compound, the viability, T/C (second compound 1 µM, first compound 0.1 µM) was 76.9%, the viability, T/C (second compound 1 µM, first compound 0.316 µM) was 75.5% and the viability, T/C (second compound 1 µM, first compound 1 µM) was 54.2%. The viability, T/C (second compound 3.16 µM, first compound 0.00316 µM) was 82.6%, the viability, T/C (second compound 3.16 µM, first compound 0.01 µM) was 70.1% and the viability, T/C (second compound 3.16 µM, first compound 0.0316 µM) was 69.5%. For the same compound, the viability, T/C (second compound 3.16 µM, first compound 0.1 µM) was 67.1%, the viability, T/C (second compound 3.16 µM, first compound 0.316 µM) was 68% and the viability, T/C (second compound 3.16 µM, first compound 1 µM) was 54.1%. The viability, T/C (second compound 10 µM, first compound 0.00316 µM) was 76.3%, the viability, T/C (second compound 10 µM, first compound 0.01 µM) was 67.1% and the viability, T/C (second compound 10 µM, first compound 0.0316 µM) was 52.6%. For the same compound, the viability, T/C (second compound 10 µM, first compound 0.1 µM) was 54.9%, the viability, T/C (second compound 10 µM, first compound 0.316 µM) was 48.5% and the viability, T/C (second compound 10 µM, first compound 1 µM) was 49.1%.

With CC(Nc1ccc2c(c1)OCCn1cc(N3C(=O)OCC3C(F)F)nc1-2)C(N)=O (stereo not given) the viability, T/C (compound 0.1 µM) was 87.7% [middle of 4 runs], the viability, T/C (compound 0.316 µM) was 88.6% [middle of 4 runs] and the viability, T/C (compound 1 µM) was 80.3% [middle of 4 runs]. The viability, T/C (compound 3.16 µM) was 74.9% [middle of 4 runs], the viability, T/C (compound 10 µM) was 67.4% [middle of 4 runs] and the IC50 (curve of compound) was over 10 µM.

For NC1c2ccccc2OC12CCN(c1cnc3c(N4CCCc5ncccc54)n[nH]c3n1)CC2 (stereo not given) + CCn1c(-c2cc(N3CCN(C)CC3)cnc2C(C)OC)c2c3cc(ccc31)-c1csc(n1)CC(NC(=O)C1CC1C)C(=O)N1CCCC(N1)C(=O)OCC(C)(C)C2, the IC50 (curve of first compound, second compound 0.000949 µM) was 0.106 µM, the IC50 (curve of first compound, second compound 0.003 µM) was 0.116 µM and the IC50 (curve of first compound, second compound 0.00949 µM) was 0.0476 µM. The IC50 (curve of first compound, second compound 0.03 µM) was under 0.0316 µM, the IC50 (curve of first compound, second compound 0.0949 µM) was under 0.0316 µM and the IC50 (curve of first compound, second compound 0.3 µM) was under 0.0316 µM. For the same compound, the viability, T/C (second compound 0.000949 µM, first compound 0.0316 µM) was 64.5%, the viability, T/C (second compound 0.000949 µM, first compound 0.1 µM) was 50.1% and the viability, T/C (second compound 0.000949 µM, first compound 0.316 µM) was 39%. For the same compound, the viability, T/C (second compound 0.000949 µM, first compound 1 µM) was 39.8%, the viability, T/C (second compound 0.000949 µM, first compound 3.16 µM) was 30.3% and the viability, T/C (second compound 0.000949 µM, first compound 10 µM) was 29.1%. The viability, T/C (second compound 0.003 µM, first compound 0.0316 µM) was 63%, the viability, T/C (second compound 0.003 µM, first compound 0.1 µM) was 52% and the viability, T/C (second compound 0.003 µM, first compound 0.316 µM) was 39.2%. The viability, T/C (second compound 0.003 µM, first compound 1 µM) was 30.3%, the viability, T/C (second compound 0.003 µM, first compound 3.16 µM) was 27.7% and the viability, T/C (second compound 0.003 µM, first compound 10 µM) was 22.6%. It also gave a viability, T/C (second compound 0.00949 µM, first compound 0.0316 µM) of 54.3%, a viability, T/C (second compound 0.00949 µM, first compound 0.1 µM) of 43.1% and a viability, T/C (second compound 0.00949 µM, first compound 0.316 µM) of 30.6%. It also gave a viability, T/C (second compound 0.00949 µM, first compound 1 µM) of 24.3%, a viability, T/C (second compound 0.00949 µM, first compound 3.16 µM) of 23.8% and a viability, T/C (second compound 0.00949 µM, first compound 10 µM) of 21.9%. It also gave a viability, T/C (second compound 0.03 µM, first compound 0.0316 µM) of 35.7%, a viability, T/C (second compound 0.03 µM, first compound 0.1 µM) of 29.9% and a viability, T/C (second compound 0.03 µM, first compound 0.316 µM) of 26.3%. For the same compound, the viability, T/C (second compound 0.03 µM, first compound 1 µM) was 22.5%, the viability, T/C (second compound 0.03 µM, first compound 3.16 µM) was 20.5% and the viability, T/C (second compound 0.03 µM, first compound 10 µM) was 18.6%. It also gave a viability, T/C (second compound 0.0949 µM, first compound 0.0316 µM) of 32.3%, a viability, T/C (second compound 0.0949 µM, first compound 0.1 µM) of 27.8% and a viability, T/C (second compound 0.0949 µM, first compound 0.316 µM) of 22.5%. It also gave a viability, T/C (second compound 0.0949 µM, first compound 1 µM) of 20.8%, a viability, T/C (second compound 0.0949 µM, first compound 3.16 µM) of 22.4% and a viability, T/C (second compound 0.0949 µM, first compound 10 µM) of 19.1%. The viability, T/C (second compound 0.3 µM, first compound 0.0316 µM) was 27.5%, the viability, T/C (second compound 0.3 µM, first compound 0.1 µM) was 23.8% and the viability, T/C (second compound 0.3 µM, first compound 0.316 µM) was 23.3%. The viability, T/C (second compound 0.3 µM, first compound 1 µM) was 21.3%, the viability, T/C (second compound 0.3 µM, first compound 3.16 µM) was 22.2% and the viability, T/C (second compound 0.3 µM, first compound 10 µM) was 21.9%.
